From the NIST ThermoML archive (doi:10.1016/j.jct.2014.07.005)

Assays:
[1] = mn = molality of the nth substance listed, in mol/kg; details: 100 kPa, Liquid; for viscosity: Capillary tube (Ostwald / Ubbelohde) method; for mass density: Vibrating tube method
[2] = 100 kPa, Liquid, Capillary tube (Ostwald / Ubbelohde) method

O [water] + CCCCCCCCn1cc[n+](C)c1.[Br-]
[1], m2 = 0
Details	viscosity [mPa·s]
288.15 K	1.139
293.15 K	1.002
298.15 K	0.89
303.15 K	0.798
308.15 K	0.719
313.15 K	0.653

O [water]
[2]
Details	viscosity [mPa·s]
288.15 K	1.139
293.15 K	1.002
298.15 K	0.89
303.15 K	0.798
308.15 K	0.719
313.15 K	0.653

CCCCCCCCn1cc[n+](C)c1.[Br-] [1-methyl-3-octylimidazolium bromide] + O
[1]
Details	mass density, m1 = 0.0035 [kg/m3]	mass density, m1 = 0.0111 [kg/m3]	mass density, m1 = 0.0185 [kg/m3]	viscosity, m1 = 0.0035 [mPa·s]	viscosity, m1 = 0.0111 [mPa·s]	viscosity, m1 = 0.0185 [mPa·s]
288.15 K	999.275	999.611	999.913	1.146	1.151	1.154
293.15 K	998.364	998.697	998.983	1.006	1.013	1.021
298.15 K	997.197	997.499	997.781	0.895	0.9	0.904
303.15 K	995.792	996.09	996.32	0.8	0.805	0.807
308.15 K	994.141	994.373	994.59	0.721	0.723	0.728
313.15 K	992.331	992.622	992.876	0.655	0.659	0.66
